Assay [1] concerns the target T1, Aurora-A/TPX2 complex (Homo sapiens, UniProt O14965).
T1 construct: His-tag (N); host or cells: Escherichia coli BL21(DE3)
T1 sequence (O14965 1-403): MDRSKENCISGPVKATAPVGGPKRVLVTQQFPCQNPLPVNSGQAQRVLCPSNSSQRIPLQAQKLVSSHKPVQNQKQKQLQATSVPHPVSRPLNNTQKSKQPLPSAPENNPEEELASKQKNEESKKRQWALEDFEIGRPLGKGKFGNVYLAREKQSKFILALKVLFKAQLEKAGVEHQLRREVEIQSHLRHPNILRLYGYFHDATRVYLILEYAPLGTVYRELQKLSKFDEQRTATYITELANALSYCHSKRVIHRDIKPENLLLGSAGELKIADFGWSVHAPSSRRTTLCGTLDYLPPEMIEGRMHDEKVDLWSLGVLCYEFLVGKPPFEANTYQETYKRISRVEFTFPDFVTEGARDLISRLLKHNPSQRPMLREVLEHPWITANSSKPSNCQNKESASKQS
As to the kind of experiment: SPR competition between GST-TPX2-1-43 and compounds for Aurora-A binding. The settings on record: for Interference with TPX2 binding to Aurora-A (in words): SPR competition.
Description: (§4) TPX2 in running buffer was injected at different concentrations (ranging from 10 nM to 5 μM), in order to determine the affinity constant of the interaction between Aurora-A and TPX2 and the conditions of the competition experiments (flow rate= 30 μl/min). […] IC50 were calculated on the basis of the RU value at each inhibitor concentration (10 sec after the end of each association sensorgram) since TPX2 binding signal decreases by increasing inhibitor concentration. Both rapid binding and rapid dissociation of inhibitors were subtracted from the sensorgrams.

Assay [2] addresses T2, Aurora-A (Homo sapiens, UniProt O14965).
T2 sequence (O14965 1-403): T1 sequence (O14965 1-403)
The assay is described as follows: FastStep SPR direct binding of compounds to immobilized Aurora-A. Also on record: His-tag (N); host or cells: Escherichia coli BL21(DE3). The following applies: for Kd: SPR, Aurora-A immobilized on COOH5 sensorchip, affinities from Scatchard plots, ± standard error of best-fit, low affinity given as >100 μM. The procedure:
We evaluated the interaction of the selected compounds with Aurora-A immobilized on a COOH5 sensorchip by FastStep Surface Plasmon Resonance (SPR) experiments. Sensorgrams were obtained using Aurora-A as ligand and injecting increasing concentrations of the inhibitors (see Materials and Methods) as analytes in running buffer (Figure 3A).
SPR experiments were carried out using a SensiQ Pioneer apparatus. The sensor chip (COOH5, with a hydrogel-based sensing surface endowed with high binding capacity) was chemically activated by a 35 μl injection of a 1:1 mixture of 200 mM N-ethyl-N’-(3-[…]) carbodiimide and 50 mM N-hydroxysuccinimide at a flow rate of 5 μl/min. Aurora-A was immobilized on the activated sensor chip via amine coupling. The immobilization was carried out in 20 mM sodium acetate at pH 4.5; the remaining ester groups were blocked by injecting 1 M ethanolamine hydrochloride (35 μl).
Compounds for testing were purchased from Ambinter (Paris, France). […] Compounds were injected onto the sensor chip at a constant flow in FastStep injection experiments, in order to rapidly obtain information on the binding of the analyte at different concentrations, with a single dissociation phase. […] At least two independent experiments were performed and averaged for each series of injections. The interaction of immobilized Aurora-A ligand with the inhibitor compounds was detected through mass concentration-dependent changes in the refractive index on the sensor chip surface, expressed as RUs.

The target of assay [3] is T2, Aurora-A. As to the kind of experiment: SPR binding of GST-TPX2-1-43 or GST alone to immobilized Aurora-A. The settings on record: GST alone as control analyte. Background: In SPR one partner is held on a chip, and binding of the other changes the refractive index at the surface.
Description: as §4
Assay [4] deals with U2OS osteosarcoma cell line. The assay is described as follows: Immunofluorescence of mitotic spindle structure in synchronized U2OS cells. It is filed as cell-based, human. The following applies: 10 μM, added 6 hours after thymidine release, fixed after further 4 hours, alpha-tubulin staining. The protocol: (§1) We next wished to examine how compounds displaying inhibitory activity on the Aurora-A/TPX2 complex formation in vitro affected mitosis in human cells. […] C20 and C23 were tested in the U2OS osteosarcoma cell line, in which we previously characterized significant mitotic defects after Alisertib-dependent Aurora-A inhibition. Briefly, U20S cells were arrested at the G1/S transition by thymidine treatment, released in fresh medium to progress through S and G2 phases, then treated with either C20 or C23 (10 μM) 6 hours after thymidine release (Figure 6A). […] Defects were scored in prometa- and metaphases and included completely disorganized spindles (Figure 6A, second panel), or spindles with supernumerary poles (Figure 6A, third and fourth panel), as typically observed under impaired Aurora-A function. To directly assess the extent of Aurora-A activation we measured Aurora-A auto-phosphorylation on Thr 288. […]
(§2) The human U2OS osteosarcoma cell line (ATCC: HTB-96) was grown at 37°C in a 5% CO2 atmosphere in DMEM, supplemented with 10% fetal bovine serum. […] After further 4 hours cells were harvested and analyzed. […]
(§3) Cells grown on poly-lysine-coated coverslips were fixed with cold methanol, 6 min at -20°C. […] Samples were analyzed using a Nikon Eclipse 90i microscope equipped with a Qicam Fast 1394 CCD camera (QImaging). […]

Assay [5] has as its system p-Thr288-Aurora-A. The assay is described as follows: Immunofluorescence of Aurora-A auto-phosphorylation on Thr 288 in U2OS prometaphases. It is filed as cell-based, human. The settings on record: thymidine arrest/release, monastrol added 2 hours before fixation. The procedure:
as §1, §2, §3

Where two headings read alike, the source gives them in different places.

As to `CC1=C(/C(O)=N/c2ccc(F)cc2F)[C@H](c2cccnc2)C2=C(C[C@@H](c3ccccc3)CC2=O)N1` [C22], the “Interference with TPX2 binding to Aurora-A (in words)” value (from here on “Interference with TPX2 binding”) in assay [1] (1 μM GST-TPX2-1-43) was “did not interfere with the formation of the Aurora-A/TPX2 complex”. For the same compound, the IC50 in assay [1] (read-out: IC50) is more than 100 µM. The equilibrium dissociation constant (Kd) in assay [2] (read-out: Kd) was 15 ± 6 µM.

As for `O=C1Cc2cc(S(=O)(=O)Nc3ccccc3C(=O)O)ccc2N1` [C06], in assay [2] (Kd), the Kd is more than 100 µM. Regarding `CC(Oc1ccc2c(c1)c1ccnc3c4ccccc4c(=O)n2c13)C(=O)NCc1ccc2c(c1)OCO2` (centres unmarked) [C25], the IC50 in assay [1] (read-out: IC50) is 40 ± 10 µM. The dissociation constant Kd in assay [2] (read-out: Kd) amounted to 12 ± 6 µM. “GST: Recombinant GST protein alone, from Sigma (SRP5348), control analyte” displayed a dissociation constant (Kd) in assay [3] of more than 5 µM. `COc1ccc(CNC(=O)C(C)Oc2ccc3c(c2)c2ccnc4c5ccccc5c(=O)n3c24)cc1` (centres unmarked) [C23]: the “Mitotic spindle defects in prometa- and metaphases” value in assay [4] was “aberrant mitotic spindles”. Further, the half-maximal inhibitory concentration (IC50) in assay [1] (read-out: IC50) stood at 30 ± 8 µM. The Kd in assay [2] (read-out: Kd) is 12 ± 5 µM. Also, the “p-Thr288-Aurora-A signal compared to controls” value in assay [5] is “highly significant reduction”.

`O=C1Nc2ccccc2/C1=N\NC(=O)c1cccc2ccccc12` [C01]: the Kd in assay [2] (Kd) was more than 100 µM.

`COc1ccc(-c2n[nH]c(=S)n2CCC(=O)Nc2ccc3nc(N4CCCC4)sc3c2)cc1` [C24] returned an equilibrium dissociation constant (Kd) in assay [2] (Kd) of more than 100 µM. As to `O=C(COc1ccc2[nH]c3ccccc3c(=O)c2c1)N1c2ccccc2OCC1c1ccccc1` (centres unmarked) [C21], in assay [2] (Kd), the Kd was more than 100 µM.

Turning to `O=C(NCCOc1ccc(-c2ccc(F)cc2)nn1)C1c2ccccc2Oc2ccccc21` [C14], in assay [2] (Kd), the Kd is more than 100 µM. Regarding `O=C1Nc2ccccc2/C1=N/NC(=O)c1ccc2ccccc2n1` [C02], the half-inhibitory concentration (IC50) in assay [1] (read-out: IC50) was 40 ± 10 µM. The Kd in assay [2] (read-out: Kd) was 42 ± 9 µM. `O=C1Nc2ccccc2/C1=N\NC(=O)C1COc2ccccc2O1` (centres unmarked) [C04] came in with a Kd in assay [2] (Kd) of 100 µM. In assay [2] (Kd), `CC1=NC2=C(C(=O)CC(c3ccccc3)C2)C(c2ccccn2)C1C(=O)Nc1ccc(F)cc1` (centres unmarked) [C15] gave a Kd of more than 100 µM. In the case of `Cc1ccc2c(c1)/C(=N\NC(=O)C1COc3ccccc3O1)C(=O)N2` (centres unmarked) [C07], the Kd in assay [2] (Kd) is more than 100 µM.

In assay [1], `O=C(Nc1ccc2c(c1)CN(C(=O)c1ccco1)CC2)c1ccc(-c2ccccc2)cc1` [C12] came in with a half-inhibitory concentration (IC50) of more than 100 µM. The “Interference with TPX2 binding” value in assay [1] (1 μM GST-TPX2-1-43) is given as “did not influence the Aurora-A/TPX2 complex formation”. Also, the Kd in assay [2] (Kd) was more than 100 µM. Further, the “Aurora-A binding (in words)” value in assay [2] (SPR direct binding) is on record as “no Aurora-A binding properties”. `CN1/C(=C\c2cccc3[nH]ccc23)C(=O)c2ccccc2S1(=O)=O` [C08] had a Kd in assay [2] (Kd) of 80 ± 30 µM. On to `CNC(=O)C1CN(C(=O)c2ccc3ccccc3c2)c2ccccc2O1` (centres unmarked) [C10], for which, in assay [2] (Kd), the equilibrium dissociation constant (Kd) was more than 100 µM.

`CCn1c(NC(=O)CCn2c(-c3ccc(OC)cc3)n[nH]c2=S)nc2ccccc21` [C13] registered a Kd in assay [2] (Kd) of more than 100 µM. `COc1cc(/C=C2\C(=O)Nc3ccccc32)c(Br)cc1OCc1ccccc1C#N` [C19]: the Kd in assay [2] (Kd) was more than 100 µM. Regarding `CC1=NC2=C(C(=O)CC(c3cccs3)C2)C(c2ccccn2)C1C(=O)Nc1ccc(F)cc1` (centres unmarked) [C17], the equilibrium dissociation constant (Kd) in assay [2] (Kd) is more than 100 µM. As to `COc1cc(NC(=S)NC(=O)c2cccc(F)c2)ccc1NC(=O)c1cc2ccccc2o1` [C20], the “Mitotic spindle defects in prometa- and metaphases” value in assay [4] was “aberrant mitotic spindles”. In addition, the IC50 in assay [1] was determined as 20 ± 10 µM. Moreover, in assay [2] (Kd), the dissociation constant (Kd) came out at 30 ± 15 µM. For the same compound, the “p-Thr288-Aurora-A signal compared to controls” value in assay [5] is reported as “highly significant reduction”. Compound `Cc1oc2cc(OCC(N)=O)ccc2c(=O)c1-c1ccc(Cl)cc1` [C09] came in with a Kd in assay [2] (Kd) of 80 ± 15 µM. As for `CC1=C(C(=O)Nc2cccc(F)c2)[C@H](c2ccccn2)C2=C(C[C@H](c3ccccc3)CC2=O)N1` [C16], the dissociation constant (Kd) in assay [2] (Kd) is more than 100 µM. In turn, `O=C1Nc2ccc(F)cc2/C1=N\NC(=O)c1ccc2c(c1)OCO2` [C05] registered a dissociation constant Kd in assay [2] (Kd) of more than 100 µM. The same measure, in the same setting: the value for `O=C(Nc1cccc2ncccc12)c1ccc2c(c1)OCCCO2` [C03] was more than 100 µM. For `CC1=NC2=C(C(=O)CC(c3cccs3)C2)C(c2ccccn2)C1C(=O)Nc1cccc(F)c1` (centres unmarked) [C18], the equilibrium dissociation constant (Kd) in assay [2] (read-out: Kd) was more than 100 µM.

Regarding `COc1cc(Nc2ncc3c(n2)-c2ccc(Cl)cc2C(c2c(F)cccc2OC)=NC3)ccc1C(=O)O` [Alisertib, reference compound], the “Interference with TPX2 binding” value in assay [1] (500 nM GST-TPX2-1-43, Supplementary Figure 2) is “does not interfere with TPX2 binding to Aurora-A”; in assay [1] (1 μM GST-TPX2-1-43), “does not compete with TPX2 binding”. In assay [2] (Kd), `O=C(NCC1Cc2cccc(-c3ccncc3)c2O1)c1ccccc1F` (centres unmarked) [C11] returned a Kd of more than 100 µM.

Broadly, the IC50 is the midpoint of a concentration-inhibition curve. Usually Kd stands for the constant that tells how readily two partners part at equilibrium.

The values are drawn from PMC5458272.
